According to PMC12040169 (PLOS Biology, 2025):

assay: in vitro; details: human, hela cells, % viability

Row | Structure (SMILES) | viability at 28.5 h, 10 µM
1 | CCn1ncc(CN2CCCCCC2c2cc(C)no2)c1C (centres unmarked) [CBK283008] | 92.9%
2 | OC1(c2cccnc2)CCCN(Cc2ccccc2F)CC1 (centres unmarked) [CBK283009] | 96.4%
3 | O=C(Cn1cncn1)N[C@H]1C2CCCCC2[C@@H]1c1ccccc1 (some centres unmarked) [CBK283011] | 93.3%
4 | CCC1c2cccn2CCN1Cc1cncn1CC (centres unmarked) [CBK283012] | 85.8%
5 | Cc1nn(C)cc1CN(Cc1cccc(F)c1)CC1CCCO1 (centres unmarked) [CBK283013] | 100%
6 | Cc1nn(C)cc1CN(Cc1ccccc1F)CC1CCCO1 (centres unmarked) [CBK283014] | 106%
7 | C=Cn1cc(CN2C3CCC2CC(O)(c2ccc(C)cc2)C3)c(C)n1 (centres unmarked) [CBK283015] | 90.5%
8 | Cc1nn(C(C)C)c(C)c1CN(CCO)Cc1cccs1 [CBK283016] | 86%
9 | OCCN(Cc1cccnc1)Cc1cccn1-c1ccccc1F [CBK283019] | 92.2%
10 | Cn1ccnc1CN(CCCn1ccnc1)Cc1ccccc1F [CBK283022] | 102%
11 | OCCN(Cc1cccnc1)Cc1cccn1-c1ccc(F)cc1 [CBK283023] | 95.9%
12 | Fc1ccccc1CN(CCCn1ccnc1)Cc1ccoc1 [CBK283024] | 89.9%
13 | CC(C)n1nccc1C(=O)NCC(c1ccc(F)cc1)N1CCCC1 (centres unmarked) [CBK283025] | 87.3%
14 | COc1ccccc1CN1CCCC(c2nc(C)n3ccccc23)C1 (centres unmarked) [CBK283026] | 87.6%
15 | O=C(C1CCC1)N1CCC(c2nc(Cc3cccs3)no2)C1 (centres unmarked) [CBK283028] | 90.9%
16 | Cc1ccc(CN[C@@H]2COC[C@H]2Cc2cc(C)no2)cc1 [CBK283030] | 106%
17 | CC(C)n1nccc1C(=O)NCC(c1ccccc1F)N1CCCC1 (centres unmarked) [CBK283032] | 94.1%
18 | Cc1ccccc1-n1nc(C)c(CN(C)CC2CCN(C)C2)c1C (centres unmarked) [CBK283035] | 82.6%
19 | CCn1cncc1CN(Cc1ccc(F)cc1)CC1CCCO1 (centres unmarked) [CBK283036] | 98%
20 | CN(C)CCCN(Cc1cnn(C)c1)Cc1ccco1 [CBK283039] | 112%
21 | CN(C)CCCN(Cc1cnn(-c2ccccc2)c1)Cc1ccco1 [CBK283040] | 110%
22 | O=C(NC1CCN(Cc2ccccc2)C1)c1ccc(F)cc1 (centres unmarked) [CBK283044] | 97.8%
23 | Cc1cc(C2CCCCCN2C(=O)c2c(Cl)cnn2C)on1 (centres unmarked) [CBK283045] | 108%
24 | Cn1ccc(C2CCCCCN2C(=O)c2cc(C3CC3)on2)n1 (centres unmarked) [CBK283050] | 104%

Row | Structure (SMILES) | viability at 28.5 h, 10 µM
25 | CCN(CC)Cc1ccc(C(=O)N2CCC(c3ccncc3)CC2)o1 [CBK283051] | 105%
26 | Fc1ccc([C@@H]2CN(Cc3cccnc3)C[C@H]2c2cc[nH]n2)cc1 [CBK283054] | 100%
27 | O=C(C1CC1)N1CC2CN(Cc3ccccc3)CC2C12CCOCC2 (centres unmarked) [CBK283055] | 103%
28 | CCCC(=O)N1CCCC(c2nnc(-c3cccs3)o2)C1 (centres unmarked) [CBK283057] | 83.6%
29 | Cc1ccc(-c2nnc(C3CCCN(C(=O)C(C)C)C3)o2)s1 (centres unmarked) [CBK283058] | 96.9%
30 | CCc1cc(CNS(=O)(=O)Cc2cccc(F)c2)on1 [CBK283061] | 92.1%
31 | O=C(CCn1ccnc1)NCC1Cc2ccccc2O1 (centres unmarked) [CBK283062] | 81%
32 | Cc1cc(C)n(C)c(=O)c1C(=O)NC(C)Cc1ccccn1 (centres unmarked) [CBK283063] | 105%
33 | CCc1cc(CNS(=O)(=O)c2ccc(C)s2)on1 [CBK283066] | 99.6%
34 | CC1Cc2cc(CC(=O)N(C)CC(F)(F)F)ccc2O1 (centres unmarked) [CBK283067] | 109%
35 | Cc1[nH]c2cccc(C(=O)N(C)CCc3cn[nH]c3)c2c1C [CBK283070] | 85.4%
36 | CCCc1cc(C(=O)N2CCc3sccc3C2C)[nH]n1 (centres unmarked) [CBK283072] | 101%
37 | CCCC(=O)NC(c1ccccn1)C1CCC(CNC(C)=O)CC1 (centres unmarked) [CBK283080] | 102%
38 | CC(C)S(=O)(=O)N1C[C@@H](c2ccccc2)[C@H]2[C@H]1CCCCCN2C [CBK283083] | 91.1%
39 | O=C(CN1CCCCCC1)N1CCCC1c1n[nH]cc1-c1cccc(Cl)c1 (centres unmarked) [CBK283084] | 94.7%
40 | O=C(NC1(C#Cc2cnc3ccccc3c2)CCCCC1)C1CCCO1 (centres unmarked) [CBK283085] | 81.9%
41 | OCC1CCN(Cc2cnn(C3CCCCC3)c2)C1 (centres unmarked) [CBK283086] | 88.4%
42 | O=C(NCCn1cncn1)C1(c2ccccc2F)CC1 [CBK283087] | 87%
43 | Cc1ccc([C@]2(O)CC[C@H]3CN(Cc4cccc(F)c4F)C[C@H]32)nc1 [CBK283088] | 98.1%
44 | COc1ccc(N(Cc2cccnc2)C(=O)c2ccc(-c3ccccc3)[nH]c2=O)cc1 [CBK283089] | 105%
45 | NC(=O)CN1C(=O)[C@@H]2CCCN2C(=O)c2ccccc21 [CBK283090] | 110%
46 | CC1Cc2cc(C(O)CN3CCC(O)(c4ccccc4F)CC3)ccc2N1S(C)(=O)=O (centres unmarked) [CBK283091] | 87.5%
47 | CC(=O)N1CCc2cc(C(O)CN3CCN(c4nsc5ccccc45)CC3)ccc21 (centres unmarked) [CBK283092] | 93.3%
48 | CC(C)NC(=O)C1CN(Cc2ccccc2)CC12CCc1ccccc1C2NC(=O)CN (centres unmarked) [CBK283093] | 79.4%

Row | Structure (SMILES) | viability at 28.5 h, 10 µM
49 | Cc1oc2ccccc2c1CN(CCN(C)C)Cc1ccncc1 [CBK283097] | 87.8%
50 | Cc1nn(C)cc1CN(CCCn1ccnc1)Cc1cccc(F)c1 [CBK283098] | 92.3%
51 | Cc1ccc(CN(CCCn2ccnc2)Cc2cccnc2)o1 [CBK283100] | 106%
52 | CCn1cncc1CN(CCCn1ccnc1)Cc1ccc(C)s1 [CBK283104] | 93.6%
53 | OC1(c2ccc(F)cc2)CCC2CN(CC3CC3)CC21 (centres unmarked) [CBK283105] | 88.9%
54 | Cc1ccc(CN(CCCn2ccnc2)Cc2cncn2C)s1 [CBK283106] | 90.2%
55 | CS(=O)(=O)N1CC2CCCC(O)(c3cccc(F)c3)C2C1 (centres unmarked) [CBK283107] | 97.3%
56 | CC(C)S(=O)(=O)N1CC2CCCC(O)(c3cccc(F)c3)C2C1 (centres unmarked) [CBK283109] | 109%
57 | CCC(=O)N1CCc2cc(C(O)CN3CCCC3)ccc21 (centres unmarked) [CBK283110] | 97.7%
58 | CCC(=O)N1CCc2cc(C(O)CN3CCCCC3)ccc21 (centres unmarked) [CBK283111] | 98.3%
59 | CCC(=O)N1CCc2cc(C(O)CN3CCCCC3C)ccc21 (centres unmarked) [CBK283112] | 105%
60 | CCOc1ccc2[nH]c(C(=O)NC3CCCOC3)cc2c1 (centres unmarked) [CBK283114] | 101%
61 | CCc1c(C(=O)NC2CCCOC2)[nH]c2ccc(F)cc12 (centres unmarked) [CBK283115] | 97.5%
62 | COc1ccccc1CN(CCCn1ccnc1)Cc1ccco1 [CBK283116] | 111%
63 | C=CCNCc1cc2c(C)nn(-c3ccc(F)cc3)c2[nH]c1=O [CBK283117] | 111%
64 | CCn1cc(CN(CCCn2ccnc2)Cc2cccc(F)c2)cn1 [CBK283124] | 107%
65 | CCNC(=O)c1ccc(-n2cccn2)c(C#Cc2ccccn2)c1 [CBK283125] | 111%
66 | O=C1CC[C@@H](NCc2ccccc2O)[C@H](c2cc(F)cc(F)c2)N1 [CBK283126] | 107%
67 | O=C1CC[C@@H](NCc2ccco2)[C@H](c2cc(F)cc(F)c2)N1 [CBK283127] | 102%
68 | Cc1ccc(O)c(CN[C@@H]2CCC(=O)N[C@H]2c2cc(F)cc(F)c2)c1 [CBK283132] | 94%
69 | COc1ccccc1C1(O)CCCC2CN(C(C)=O)CC21 (centres unmarked) [CBK283134] | 102%
70 | Cc1ccc(CN(CCCn2ccnc2)Cc2c[nH]cn2)s1 [CBK283136] | 95.1%
71 | O=C(NCc1cc(C2CC2)[nH]n1)C1(c2ccccc2F)CC1 [CBK283140] | 97.6%
72 | O=C(NC1CCCOC1)c1cc(-c2ccc(F)cc2)no1 (centres unmarked) [CBK283141] | 107%

Row | Structure (SMILES) | viability at 28.5 h, 10 µM
73 | CC1(C)CC(=O)c2cnc3cc(-c4ccco4)nn3c2C1 [CBK283142] | 102%
74 | CC(=O)N1c2ccc(C(O)CN3CCSCC3)cc2CC1C (centres unmarked) [CBK283143] | 98.9%
75 | CC1Cc2cc(C(O)CN3CCCCC3)ccc2N1C(=O)C1CC1 (centres unmarked) [CBK283144] | 97.4%
76 | CN(C)CCN(CCc1ccccc1)Cc1ccncc1 [CBK283145] | 91.5%
77 | CC1CCCN(C(=O)c2cc(-c3ccccn3)n[nH]2)C1C (centres unmarked) [CBK283146] | 88.5%
78 | CN(CCc1ccncc1)C(=O)c1[nH]nc2c1CCCCC2 [CBK283151] | 96.9%
79 | Cc1cc2ncc3c(n2n1)CC1CCC3N1C(=O)CCn1cccc1 (centres unmarked) [CBK283157] | 109%
80 | COc1ccccc1CN(CCCn1ccnc1)Cc1cccn1C [CBK283160] | 92.2%
81 | CCN1CCCC1CN(Cc1ccccn1)Cc1ccco1 (centres unmarked) [CBK283161] | 91.3%
82 | O=C(NCCN1CCC(O)(c2ccc(F)cc2)CC1)C1CCCCC1 [CBK283165] | 106%
83 | Cc1ccc(C(=O)NCCN2CCC(O)(c3ccc(F)cc3)CC2)o1 [CBK283167] | 86.3%
84 | C=CCn1ncc(CN(C)Cc2nc3ccccc3[nH]2)c1C [CBK283169] | 96%
85 | C=Cn1ncc(CN(C)Cc2nc3ccccc3[nH]2)c1C [CBK283170] | 91.6%
86 | Cc1ccc(CN(CC2CCOC2)C2CC(C)(C)NC(C)(C)C2)o1 (centres unmarked) [CBK283174] | 92.6%
87 | Cc1ccc(CN(Cc2[nH]cnc2C)C2CC(C)(C)NC(C)(C)C2)o1 [CBK283176] | 96.7%
88 | CN(C)CCCN(Cc1ccco1)Cc1cccn1-c1ccccn1 [CBK283180] | 99.8%
89 | Cc1ccnn1CCNC(=O)CCc1ccc(Cl)cc1 [CBK283182] | 91.1%
90 | CN(CCc1cn[nH]c1)C(=O)CCc1ccc(Cl)cc1 [CBK283183] | 91.1%
91 | O=C(CCc1ccc(Cl)cc1)NCCn1cncn1 [CBK283184] | 98.6%
92 | Cc1cc(C)c2cc(CNC3CC3)c3nn(C)c(=O)n3c2c1 [CBK283186] | 93.8%
93 | Cc1cccc(CN(CCCN(C)C)Cc2ccc(C)o2)n1 [CBK283187] | 98.2%
94 | Cc1ccc(CN(CCCN(C)C)Cc2cnc(C)n2C)o1 [CBK283188] | 95.4%
95 | Cc1ccc(CN(Cc2cncn2C)C2CC(C)(C)NC(C)(C)C2)o1 [CBK283192] | 103%
